Reference: patent US20100093861A1, “TREATMENT OF INSULIN RESISTANCE OR DISEASES ASSOCIATED WITH INSULIN RESISTANCE” (Stevia ApS, priority 2006, published 2010)

Key:
[1] = tested on: isolated NMRI mice islets; assay: Glucose stimulated insulin secretion (GSIS) from isolated NMRI mice islets; format: cell-based; details: 10^−8 mol/l-10^−6 mol/l, 16.7 mmol/l glucose, 60 minutes
Procedure: For in vitro studies with steviol and ISV, we included adult female NMRI mice (Taconic, Ry Denmark), all weighing 22-25 g. We used 12 hours light/dark cycle. The Danish Council for Animal experiments has approved the study.
Islets were isolated by the collagenase digestion technique. In brief, the animals were anesthetized with pentobarbital (50 mg/kg intraperitoneally) and midline laparotomy was performed. The pancreas was retrogradely filled with 3 mL ice-cold Hanks balanced salt solution (([HBSS] Sigma Chemical, St Louis, Mo.) supplemented with 0.3 mg/ml collagenase Boehringer Mannheim GmbH, Germany). The pancreas was subsequently removed and incubated for 19 minutes at 37° C. After rinsing in HBSS, the islets were handpicked under a stereomicroscope and immediately transferred to a tubes containing 1 ml Trizol (Gibco/Invitrogene, Calsbad, Calif., USA). The islets isolated from the NMRI mice were incubated overnight at 37° C. and 95% normal atmosphere/5% CO2 in 10 ml RPMI 1640 containing 11.1 mmol/L glucose supplemented with penicillin G and 100 μg/mL streptomycin (all Gibco/Invitrogene, Calsbad, Calif., USA).
The NMRI female mice islets were rinsed twice with a modified Krebs-Ringer buffer (KRB) supplemented with 3.3 mmol/L glucose and 0.1% human serum albumin (Sigma). The KRB contained 125 mmol/L NaCl, 5.9 mmol/L KCl, 1.2 MgCl, 1.28 CaCl2 and 25 mmol/L HEPES (Ph 7.4: all Sigma). Single islets were incubated in 100 μL KRB containing glucose (3.3 and 16.7 mmol/L) and steviol/ISV according to the protocols (Jeppesen et al., 2000). After incubation (60 min), 50 μL of the medium was frozen for RIA analysis of insulin.

isolated mouse islets = details: previously demonstrated (Jeppesen, P. B. et al., 2000); cited from earlier work

C=C1C[C@@]23CC[C@H]4[C@@](C)(CCC[C@@]4(C)C(=O)O)[C@@H]2CC[C@]1(O)C3 [steviol, ent-kaur-16-en-13-ol-19-oic acid]
potency on GSIS, isosteviol compared with steviol, at higher concentration [1]: not found any significant difference
insulinotropic effect on isolated mouse islets (isolated mouse islets): potent insulinotropic effect
